Experimental data from patent publication US20090062304A1, “Benzimidazole derivatives and their use for modulating the gaba-alpha receptor complex” (priority 2005, published 2009).

Key:
[1] = target: benzodiazepine modulatory unit of the GABAA receptor complex; test: In vitro inhibition of 3H-flunitrazepam (3H-FNM) binding; conditions: inhibition of specific 3H-FNM (1 nM) binding, rat cerebral cortex membranes, 40 min at 2° C.
Experimental: In Vitro Inhibition of ^3H-flunitrazepam (^3H-FNM) Binding
The GABA recognition site and the benzodiazepine modulatory unit can selectively be labelled with ^3H-flunitrazepam.
Preparations are performed at 0-4° C. unless otherwise indicated. Cerebral cortex from male Wistar rats (150-200 g) is homogenised for 5-10 sec in 20 ml Tris-HCl (30 mM, pH 7.4) using an Ultra-Turrax homogeniser. The suspension is centrifuged at 27,000×g for 15 min and the pellet is washed three times with buffer (centrifuged at 27,000×g for 10 min). The washed pellet is homogenized in 20 ml of buffer and incubated on a water bath (37° C.) for 30 min to remove endogenous GABA and then centrifuged for 10 min at 27,000×g. The pellet is then homogenized in buffer and centrifuged for 10 min at 27,000×g. The final pellet is resuspended in 30 ml buffer and the preparation is frozen and stored at −20° C.
The membrane preparation is thawed and centrifuged at 2° C. for 10 min at 27,000×g. The pellet is washed twice with 20 ml 50 mM Tris-citrate, pH 7.1 using an Ultra-Turrax homogeniser and centrifuged for 10 min at 27,000×g. The final pellet is resuspended in 50 mM Tris-citrate, pH 7.1 (500 ml buffer per g of original tissue), and then used for binding assays. Aliquots of 0.5 ml tissue are added to 25 μl of test solution and 25 μl of ^3H-FNM (1 nM, final concentration), mixed and incubated for 40 min at 2° C. Non-specific binding is determined using Clonazepam (1 μM, final concentration). After incubation the samples are added 5 ml of ice-cold buffer and poured directly onto Whatman GF/C glass fibre filters under suction and immediately washed with 5 ml ice-cold buffer. The amount of radioactivity on the filters is determined by conventional liquid scintillation counting. Specific binding is total binding minus non-specific binding.
25-75% inhibition of specific binding must be obtained, before calculation of an IC50.
The test value will be given as IC50 (the concentration (μM) of the test substance which inhibits the specific binding of ^3H-FNM by 50%).
Co is specific binding in control assays, and […]

CC(=O)N1CCN(c2cccc(-n3cnc4cc(C(F)(F)F)ccc43)c2)CC1
melting point: 143 to 146 °C

COc1ccc2c(c1)ncn2-c1cccc(N2CCN(C(C)=O)CC2)c1
melting point: 157 °C

CC(=O)N1CCN(c2cccc(-n3cnc4cc(C)ccc43)c2)CC1 [Compound 23, 1-{4-[3-(5-Methyl-benzoimidazol-1-yl)-phenyl]-piperazin-1-yl}-ethanone]
IC50 [1]: 2.6 nM
melting point: 145 to 146 °C

CC(=O)N1CCN(c2cccc(-n3cnc4cc(C(C)O)ccc43)c2)CC1 (stereo not shown) [Compound 33, 1-(4-{3-[5-(1-Hydroxy-ethyl)-benzoimidazol-1-yl]-phenyl}-piperazin-1-yl)-ethanone]
IC50 [1]: 9.6 nM
melting point: 126 °C

CC(=O)N1CCN(c2cccc(-n3cnc4cc(C(C)C)ccc43)c2)CC1 [Compound 38, 1-{4-[3-(5-Isopropyl-benzoimidazol-1-yl)-phenyl]-piperazin-1-yl}-ethanone]
IC50 [1]: 5 nM
